Assay results as given in patent US20190192517A1, “TREATMENT OF SQUAMOUS CELL CARCINOMAS WITH INHIBITORS OF ERK” (Kura Oncology, Inc., priority 2016, published 2019).
Blank lines part the entries; values can stand above or below the compound they belong to.

What was measured:
A375 NRAS Q61R = assay: Models of clinical B-Raf and MEK inhibitor resistance, CellTiter-Glo 72 hours: A375 NRAS Q61R; format: cell-based; settings: Homo sapiens, A-375
Protocol: (§1) Example 11: Efficacy studies in models of clinical B-Raf and MEK inhibitor resistance. Human melanoma cell lines were obtained from ATCC or DSMZ (e.g., A375, MM383 BRAF V600E and MM127 NRAS Q61R). A375 cells were engineered to overexpress LacZ, BRAF V600E (BRAF V600E amp), or the NRAS mutant NRAS Q61R. The cell lines were grown to confluency, washed with Tumor Cell Media (DMEM+10% FBS or IMDM+20% FBS), and plated in 90 μL Tumor Cell Media at 5,000-10,000 cells/well. […] Plates were incubated for 72 hours at 37° C. and 5% CO2. A volume of 100 μL of CellTiter-Glo® reagent was added to each well and plates were mixed for 2 minutes on an orbital shaker. The plates were allowed to stand at room temperature for 20 minutes before measuring the luminescent signal of each well.

[1] = tested on: A375 V600E amp (BRAF V600E amp); assay: Models of clinical B-Raf and MEK inhibitor resistance, CellTiter-Glo 72 hours: A375 V600E amp; format: cell-based; settings: Homo sapiens, A-375
Protocol: as §1, with “Human” for “Example 11: Efficacy studies in models of clinical B-Raf and MEK inhibitor resistance. Human”

A375 LacZ = assay: Models of clinical B-Raf and MEK inhibitor resistance, CellTiter-Glo 72 hours: A375 LacZ; format: cell-based; settings: Homo sapiens, A-375
Protocol: as §1

ERK2 enzyme = target: T1, ERK2 enzyme (Homo sapiens, UniProt P28482); assay: Inhibition assay of ERK (Z'-LYTE kinase assay, Ser/Thr 3 peptide, 100 μM ATP); format: biochemical; settings: in vitro
T1 construct: purchased Life Technologies
Protocol: Example 9: Inhibition Assays of ERK. The inhibition of ERK activity by the compounds disclosed herein was determined using the Z′-LYTE kinase assay kit (Life Technologies) with a Ser/Thr 3 peptide substrate (Life Technologies) according to manufacturer's instructions. […] The IC50 values for the compounds were determined with 3-fold serial dilutions in duplicate. The compounds were first diluted in 1:3 dilutions in 100% DMSO at 100× the desired concentration, and then further diluted (1:25) in 20 mM HEPES buffer (Invitrogen) to make 4× solutions prior to adding to the enzyme solution. The final DMSO concentration in the assay was 1%. Final reaction volume was […] in 384-well plates. Kinase reactions were conducted for 1 hour followed by the assay development reaction (1 hour) in a 384 well plate format (20 μL/well).

[2] = tested on: HNSCC patient-derived xenograft models exhibiting CCND1 amplification; assay: Efficacy studies in patient-derived xenograft models of HNSCC (Example 14); format: in vivo, human (in BALB/C nude mice); settings: 300-350 mg/kg QW PO
Description: Example 14: Efficacy studies in patient-derived xenograft models of HNSCC. The general procedure outline in Example 1 was followed.

[3] = tested on: ES0215 primary human ESCC tissues; assay: Patient-derived xenograft model of ESCC: ES0215; format: in vivo, human (in BALB/C nude mice); settings: Q2D or QW schedules
Protocol: (§2) Example 2: Efficacy studies in patient-derived xenograft models of ESCC. The general procedure outline in Example 1 was followed. […] Gene copy number and gene expression were assessed as described in Example 1.

[4] = tested on: HN1391 primary human HNSCC tissues; assay: Patient-derived xenograft model of HNSCC: HN1391; format: in vivo, human (in BALB/C nude mice)
Protocol: Example 5: Efficacy studies in patient-derived xenograft modes of HNSCC. The general procedure outline in Example 1 was followed. […] Dosing was discontinued to observe tumor regrowth, then restarted on the same dosing schedule on day 56. […] This activity was maintained for 25 days on treatment at either 120 mg/kg Q2D or 300 mg/kg QW. When dosing was discontinued, tumor stasis was maintained for 10-20 days, but eventually all of the tumors regrew. Regrowth was allowed to proceed for 2-3 weeks, until some individual tumors exceeded 1600 mm^3, then therapy was restarted. Strikingly, all of the retreated tumors regressed, decreasing in size by 27-66% in the subsequent 35 days.

[5] = tested on: HN0635 primary human HNSCC tissues; assay: Patient-derived xenograft model of HNSCC: HN0635; format: in vivo, human (in BALB/C nude mice); settings: Q2D or QW schedules
Protocol: (§3) Example 3: Efficacy studies in patient-derived xenograft models of HNSCC. The general procedure outline in Example 1 was followed. […] Gene copy number and gene expression were assessed as described in Example 1.

[6] = tested on: ES0191 primary human ESCC tissues; assay: Patient-derived xenograft model of ESCC: ES0191; format: in vivo, human (in BALB/C nude mice); settings: weekly schedule
Protocol: as §2

[7] = tested on: HN3067 primary human HNSCC tissues; assay: Patient-derived xenograft model of HNSCC: HN3067; format: in vivo, human (in BALB/C nude mice)
Description: Example 6: Efficacy studies in patient-derived xenograft models of HNSCC. The general procedure outline in Example 1 was followed. […] Dosing was discontinued to observe tumor regrowth.

[8] = tested on: LU0009 primary human NSCLC tissues; assay: Patient-derived xenograft model of squamous NSCLC: LU0009; format: in vivo, human (in BALB/C nude mice); settings: Q2D or 2QW schedules
Protocol: (§4) Example 1: Efficacy studies in patient-derived xenograft models of squamous NSCLC. Tumor fragments (2-4 mm in diameter) from stock mice inoculated with LU1868 or LU0009 primary human NSCLC tissues were inoculated subcutaneously into BALB/C nude mice. The mice were stratified into groups when the average tumor size reached about 200 mm^3. […] Tumor volumes were measured twice weekly in two dimensions using a caliper, with volume expressed in mm^3 (mean+/−SEM) using the formula […], where a and b are the long and short diameters of the tumor, respectively.
(§5) Responses were classified as “tumor stasis” if tumors grew ≤10% during the dosing period. Many SCC patient-derived xenograft models retain comorbid properties of the original tumors from which they were derived, such as induction of cachexia and spontaneous ulceration, that negatively impact the physiology of the host animal and reduce tolerability to exogenous agents, such as therapeutic drugs. […] Dosing holidays were necessary during periods when the mouse had lost ≥10% of body weight until the weight of the mouse returned to baseline. […] Where TGI was 70-85% and no doses were missed, activity was classified as “borderline”, and any TGI levels below 70% were classified as “resistant”.

[9] = tested on: LU1868 primary human NSCLC tissues; assay: Patient-derived xenograft model of squamous NSCLC: LU1868; format: in vivo, human (in BALB/C nude mice); settings: daily and Q2D dosing schedules
Protocol: as §4, §5

[10] = tested on: HN2221 primary human HNSCC tissues; assay: Patient-derived xenograft model of HNSCC: HN2221; format: in vivo, human (in BALB/C nude mice); settings: weekly dosing
Protocol: as §3

T1 sequence (P28482 whole entry): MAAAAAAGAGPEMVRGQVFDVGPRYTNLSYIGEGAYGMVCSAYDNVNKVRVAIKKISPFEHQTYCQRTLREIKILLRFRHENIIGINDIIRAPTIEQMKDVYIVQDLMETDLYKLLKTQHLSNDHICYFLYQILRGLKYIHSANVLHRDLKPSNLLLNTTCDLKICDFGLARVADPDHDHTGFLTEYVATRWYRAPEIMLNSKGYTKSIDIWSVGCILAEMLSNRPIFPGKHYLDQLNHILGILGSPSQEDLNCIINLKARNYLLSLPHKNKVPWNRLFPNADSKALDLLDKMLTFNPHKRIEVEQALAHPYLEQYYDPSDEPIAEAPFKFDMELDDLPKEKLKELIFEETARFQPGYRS

SMILES: CC(=O)Nc1cccc(-n2c(=O)n(C3CC3)c(=O)c3c(Nc4ccc(I)cc4F)n(C)c(=O)c(C)c32)c1 [Trametinib]
IC50 (A375 NRAS Q61R): 77 nM
IC50 [1]: 300 nM
IC50 (A375 LacZ): 7 nM

SMILES: CCCS(=O)(=O)Nc1ccc(F)c(C(=O)c2c[nH]c3ncc(-c4ccc(Cl)cc4)cc23)c1F [Vemurafenib]
IC50 (A375 NRAS Q61R): > 10000 nM
IC50 [1]: > 10000 nM
IC50 (A375 LacZ): 4200 nM

SMILES: COc1ncc(-c2n[nH]c3cc4c(cc23)CN([C@@H]2CCCN(Cc3c(F)cccc3F)C2)C(=O)N4)cn1 [Compound 102]
IC50 (ERK2 enzyme): < 500 nM

SMILES: CC(c1ccccc1)c1cc2cc3c(-c4ccncc4)n[nH]c3cc2[nH]c1=O (centres unmarked) [Compound 326]
IC50 (ERK2 enzyme): < 500 nM

SMILES: CC(c1ccccc1)c1cc2cc3c(-c4ccc(N5CCN(C)CC5)nc4)n[nH]c3cc2[nH]c1=O (centres unmarked) [Compound 316]
IC50 (ERK2 enzyme): < 500 nM

SMILES: Cc1cc(-c2n[nH]c3cc4c(cc23)CN([C@@H]2CCN(CC(F)(F)F)C2)C(=O)N4)ccn1 [Compound 214]
IC50 (ERK2 enzyme): < 500 nM

SMILES: COc1ncc(-c2n[nH]c3cc4c(cc23)CN([C@@H]2CCCN(Cc3c(F)cccc3OC)C2)C(=O)N4)cn1 [Compound 103]
IC50 (ERK2 enzyme): < 500 nM

SMILES: O=C1Nc2cc3[nH]nc(-c4ccncc4)c3cc2CN1Cc1ccccc1 [KO-947]
Models responsive to treatment [2]: Four out of six
Tumor response (tumor volume) [3]: only modest inhibition of tumor growth
Tumor response when treatment was initiated ([4]; 120 mg/kg Q2D or 300 mg/kg QW, maintained for 25 days): regression and tumor stasis
Time tumor stasis was maintained after dosing was discontinued ([4]; after 25 days on treatment): 10 to 20 days
Decrease in size of retreated tumors ([4]; therapy restarted on day 56, subsequent 35 days): 27-66%
Animals with tumor regression [5]: 5 of 6
Tumor response (tumor volume) [6]: tumor regression was initially seen on a weekly schedule, with some regrowth late in the experiment resulting ultimately in tumor stasis
Tumor response (tumor volume) ([7]; all six animals, 120 mg/kg Q2D or 300 mg/kg QW, 40 days): robust tumor regression
Animals with no evidence of remaining viable tumor ([7]; sixty days after dosing was discontinued): 4 of 6
Tumor response (tumor volume) [8]: only modest inhibition of tumor growth
Tumor response (tumor volume) [9]: tumor regression
Tumor response (tumor volume) [10]: only modest inhibition of tumor growth

SMILES: Cc1cc(-c2n[nH]c3cc4[nH]c(=O)c([C@H](C)c5ccc(F)cc5)cc4cc23)ccn1 [Compound 288]
IC50 (ERK2 enzyme): < 500 nM

Other lines, results leading:

IC50 (ERK2 enzyme): < 500 nM
SMILES: Cc1cc(-c2n[nH]c3cc4c(cc23)CN([C@@H]2CCCN(Cc3ccc(C)s3)C2)C(=O)N4)ccn1 [Compound 245]

IC50 (ERK2 enzyme): < 500 nM
SMILES: Cc1ncc(-c2n[nH]c3cc4c(cc23)CN([C@@H]2CCCN(Cc3ccccc3)C2)C(=O)N4)cn1 [Compound 292]

IC50 (ERK2 enzyme): < 500 nM
SMILES: Cc1cc(-c2n[nH]c3cc4c(cc23)CN([C@@H]2CN(C)C[C@H]2c2ccccc2)C(=O)N4)cc(C)n1 (racemic) [Compound 248]

IC50 (ERK2 enzyme): < 500 nM
SMILES: Cc1cc(-c2n[nH]c3cc4c(cc23)CN(C2CCC2)C(=O)N4)ccn1 [Compound 243]

IC50 (ERK2 enzyme): < 500 nM
SMILES: Cc1cc(-c2n[nH]c3cc4c(cc23)CN([C@@H]2CCCN(Cc3sccc3F)C2)C(=O)N4)ccn1 [Compound 291]
